Several values for one entry are separate records, joined by “and”; a condition that tells them apart may be missing. Identical values can stand only once.
Assays:
M3(h) = M3(h) (Homo sapiens, UniProt P20309); assay: Off-target radioligand binding screen; conditions: read-out: M3(h) ($): inhibition of radioligand binding
[1] = Stability in human plasma; format: in vitro ADME; conditions: 1 µM, 37 °C
Protocol: Plasma stability is defined as the percentage of parent compound remaining in plasma over the time. Here, incubations were carried out in 5 aliquots of 70 µl each (one for each time point), in duplicates. […] The percentage of the test compounds remaining after incubation in plasma and their half-lives (T1/2) was calculated.

β1(h) = β1(h) (Homo sapiens, UniProt P08588); assay: Off-target radioligand binding screen; conditions: read-out: β1(h) (#): inhibition of radioligand binding
Sequence of β1(h) (P08588 whole entry): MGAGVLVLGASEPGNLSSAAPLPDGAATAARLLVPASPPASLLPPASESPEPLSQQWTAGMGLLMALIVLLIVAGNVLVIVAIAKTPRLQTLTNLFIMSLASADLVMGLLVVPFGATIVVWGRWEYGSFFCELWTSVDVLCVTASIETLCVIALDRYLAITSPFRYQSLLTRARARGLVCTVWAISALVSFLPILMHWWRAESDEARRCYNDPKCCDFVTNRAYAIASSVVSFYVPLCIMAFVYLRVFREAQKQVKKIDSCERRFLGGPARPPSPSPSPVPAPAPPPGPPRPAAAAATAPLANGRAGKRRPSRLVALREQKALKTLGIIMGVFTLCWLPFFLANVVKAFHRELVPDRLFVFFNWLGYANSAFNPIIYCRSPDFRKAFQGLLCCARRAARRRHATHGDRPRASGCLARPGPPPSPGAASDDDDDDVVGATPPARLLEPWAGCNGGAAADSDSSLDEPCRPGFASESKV

kappa (h) (KOP) = kappa (h) (KOP) (Homo sapiens, UniProt P41145); assay: Off-target radioligand binding screen; conditions: read-out: kappa (h) (KOP) (#): inhibition of radioligand binding
Sequence of kappa (h) (KOP) (P41145 whole entry): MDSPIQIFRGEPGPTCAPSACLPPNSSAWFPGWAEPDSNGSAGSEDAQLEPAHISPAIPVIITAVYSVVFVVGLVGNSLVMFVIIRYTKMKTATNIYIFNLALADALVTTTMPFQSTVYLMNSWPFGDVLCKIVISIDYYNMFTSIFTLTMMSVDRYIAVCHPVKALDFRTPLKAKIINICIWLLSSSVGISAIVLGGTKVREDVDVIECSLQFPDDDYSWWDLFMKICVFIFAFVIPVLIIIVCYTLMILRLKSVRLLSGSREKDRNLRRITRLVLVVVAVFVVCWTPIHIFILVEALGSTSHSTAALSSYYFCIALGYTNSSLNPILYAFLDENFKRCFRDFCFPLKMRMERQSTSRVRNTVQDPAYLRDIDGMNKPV

D1(h) = D1(h) (Homo sapiens, UniProt P21728); assay: Off-target radioligand binding screen; conditions: read-out: D1(h) ($): inhibition of radioligand binding
Sequence of D1(h) (P21728 whole entry, the tested form may be a part): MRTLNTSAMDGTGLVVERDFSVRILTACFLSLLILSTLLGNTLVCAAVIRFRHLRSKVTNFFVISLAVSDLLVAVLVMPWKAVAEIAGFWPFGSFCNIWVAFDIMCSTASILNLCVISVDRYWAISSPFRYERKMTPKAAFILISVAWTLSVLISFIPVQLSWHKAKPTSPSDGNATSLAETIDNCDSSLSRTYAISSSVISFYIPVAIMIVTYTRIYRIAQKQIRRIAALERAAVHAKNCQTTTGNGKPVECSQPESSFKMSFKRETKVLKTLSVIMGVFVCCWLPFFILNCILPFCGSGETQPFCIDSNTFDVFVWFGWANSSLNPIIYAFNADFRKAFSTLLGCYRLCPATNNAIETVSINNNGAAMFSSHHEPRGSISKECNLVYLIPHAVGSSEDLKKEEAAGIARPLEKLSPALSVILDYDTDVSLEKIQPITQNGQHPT

C57Bl/6 N mice = assay: Bilateral kidney ischemia-reperfusion injury, moderate model (30 min ischemia); format: in vivo, mouse
Excerpt: Otherwise, the two models are identical.

[2] = system: Ca2+ channel (L, dihydropyridine site); assay: Off-target radioligand binding screen; conditions: Nec-1f 10 µM
D2S(h) = D2S(h) (Homo sapiens, UniProt P14416); assay: Off-target radioligand binding screen; conditions: read-out: D2S(h) (#): inhibition of radioligand binding
Sequence of D2S(h) (P14416 1-414 isoform P14416-2): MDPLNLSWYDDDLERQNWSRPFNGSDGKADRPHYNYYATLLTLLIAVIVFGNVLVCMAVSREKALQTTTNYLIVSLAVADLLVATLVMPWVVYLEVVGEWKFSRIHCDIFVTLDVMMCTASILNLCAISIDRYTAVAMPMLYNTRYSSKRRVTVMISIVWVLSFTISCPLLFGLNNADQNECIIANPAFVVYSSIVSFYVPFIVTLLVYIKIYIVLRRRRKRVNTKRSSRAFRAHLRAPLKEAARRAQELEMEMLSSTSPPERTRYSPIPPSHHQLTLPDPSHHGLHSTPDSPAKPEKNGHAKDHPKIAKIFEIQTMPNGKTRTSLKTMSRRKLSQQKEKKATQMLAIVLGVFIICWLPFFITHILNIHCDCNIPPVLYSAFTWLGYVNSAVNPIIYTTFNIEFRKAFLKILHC

C57BL/6N mice = assay: Acute oxalate nephropathy (CaOx-induced AKI); format: in vivo, mouse; conditions: sodium oxalate, 1.65 mg/kg Nec-1f, individual animals
μ (MOP) (h) = μ (MOP) (h) (Homo sapiens, UniProt P35372); assay: Off-target radioligand binding screen; conditions: read-out: μ (MOP) (h) (#): inhibition of radioligand binding
Sequence of μ (MOP) (h) (P35372 whole entry): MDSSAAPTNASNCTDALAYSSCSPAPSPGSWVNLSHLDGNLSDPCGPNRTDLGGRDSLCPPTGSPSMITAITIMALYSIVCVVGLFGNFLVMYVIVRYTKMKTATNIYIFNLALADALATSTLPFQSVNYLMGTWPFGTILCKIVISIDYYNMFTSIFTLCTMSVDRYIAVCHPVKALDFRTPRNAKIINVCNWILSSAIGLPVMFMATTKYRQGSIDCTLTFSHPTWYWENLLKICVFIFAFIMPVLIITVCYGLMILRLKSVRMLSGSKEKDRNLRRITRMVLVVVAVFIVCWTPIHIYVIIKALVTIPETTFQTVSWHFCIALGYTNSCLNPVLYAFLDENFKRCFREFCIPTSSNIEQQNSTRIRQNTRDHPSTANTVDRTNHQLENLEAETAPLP

V1a(h) = V1a(h) (Homo sapiens, UniProt P37288); assay: Off-target radioligand binding screen; conditions: read-out: V1a(h) (#): inhibition of radioligand binding
Sequence of V1a(h) (P37288 whole entry): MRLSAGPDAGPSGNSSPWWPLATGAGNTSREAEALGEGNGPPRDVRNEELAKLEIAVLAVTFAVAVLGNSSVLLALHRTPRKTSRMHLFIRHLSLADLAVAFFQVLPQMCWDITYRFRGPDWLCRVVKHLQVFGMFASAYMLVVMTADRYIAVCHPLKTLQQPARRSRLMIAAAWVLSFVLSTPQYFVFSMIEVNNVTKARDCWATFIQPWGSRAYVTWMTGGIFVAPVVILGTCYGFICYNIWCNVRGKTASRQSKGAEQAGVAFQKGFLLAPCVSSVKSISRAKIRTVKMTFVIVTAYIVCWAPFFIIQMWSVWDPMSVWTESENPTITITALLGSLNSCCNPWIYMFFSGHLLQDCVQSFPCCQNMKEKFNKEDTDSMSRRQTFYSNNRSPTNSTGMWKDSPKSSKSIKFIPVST

GR (h) = GR (h) (Homo sapiens, UniProt P04150); assay: Off-target radioligand binding screen; conditions: read-out: GR (h) (#): inhibition of radioligand binding, Nec-1f 10 µM
Sequence of GR (h) (P04150 whole entry): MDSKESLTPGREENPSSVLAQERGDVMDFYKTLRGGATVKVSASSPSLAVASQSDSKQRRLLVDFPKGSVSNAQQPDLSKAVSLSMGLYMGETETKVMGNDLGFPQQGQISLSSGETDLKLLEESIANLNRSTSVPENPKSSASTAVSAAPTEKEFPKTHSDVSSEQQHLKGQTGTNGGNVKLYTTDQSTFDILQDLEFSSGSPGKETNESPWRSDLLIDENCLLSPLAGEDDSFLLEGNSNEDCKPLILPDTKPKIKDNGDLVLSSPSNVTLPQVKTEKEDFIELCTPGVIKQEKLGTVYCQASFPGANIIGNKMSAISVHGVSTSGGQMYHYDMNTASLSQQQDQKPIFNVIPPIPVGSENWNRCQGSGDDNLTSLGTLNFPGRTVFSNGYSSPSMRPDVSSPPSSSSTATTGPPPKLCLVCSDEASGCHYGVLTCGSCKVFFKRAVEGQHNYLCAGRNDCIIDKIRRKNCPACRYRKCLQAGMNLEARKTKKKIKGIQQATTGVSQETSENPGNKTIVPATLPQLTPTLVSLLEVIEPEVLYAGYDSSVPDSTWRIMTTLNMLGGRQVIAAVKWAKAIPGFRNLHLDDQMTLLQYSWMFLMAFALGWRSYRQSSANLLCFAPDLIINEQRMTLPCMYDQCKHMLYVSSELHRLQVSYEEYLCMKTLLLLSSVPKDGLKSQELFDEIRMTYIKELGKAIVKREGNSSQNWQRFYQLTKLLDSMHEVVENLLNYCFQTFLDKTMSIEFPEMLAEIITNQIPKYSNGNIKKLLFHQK

5-HT2B(h) = 5-HT2B(h) (Homo sapiens, UniProt P41595); assay: Off-target radioligand binding screen; conditions: read-out: 5-HT2B(h) (#): inhibition of radioligand binding
Sequence of 5-HT2B(h) (P41595 whole entry): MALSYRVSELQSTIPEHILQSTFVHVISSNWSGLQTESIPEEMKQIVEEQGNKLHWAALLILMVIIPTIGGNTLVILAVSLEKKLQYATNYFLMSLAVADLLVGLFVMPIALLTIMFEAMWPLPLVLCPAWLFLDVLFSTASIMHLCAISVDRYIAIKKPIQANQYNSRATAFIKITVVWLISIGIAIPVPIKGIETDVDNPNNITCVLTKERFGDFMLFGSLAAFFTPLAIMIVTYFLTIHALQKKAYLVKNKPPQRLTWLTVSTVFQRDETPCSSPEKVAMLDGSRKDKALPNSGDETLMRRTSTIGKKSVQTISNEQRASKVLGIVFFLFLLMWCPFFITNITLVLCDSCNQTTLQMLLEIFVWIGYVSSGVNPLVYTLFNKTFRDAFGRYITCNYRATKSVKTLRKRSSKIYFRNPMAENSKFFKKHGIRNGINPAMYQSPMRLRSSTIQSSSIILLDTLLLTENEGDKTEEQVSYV

[3] = target: norepinephrine transporter(h) (Homo sapiens, UniProt P23975); assay: Off-target radioligand binding screen; conditions: read-out: norepinephrine transporter(h) ($): inhibition of radioligand binding
Sequence of norepinephrine transporter(h) (P23975 whole entry): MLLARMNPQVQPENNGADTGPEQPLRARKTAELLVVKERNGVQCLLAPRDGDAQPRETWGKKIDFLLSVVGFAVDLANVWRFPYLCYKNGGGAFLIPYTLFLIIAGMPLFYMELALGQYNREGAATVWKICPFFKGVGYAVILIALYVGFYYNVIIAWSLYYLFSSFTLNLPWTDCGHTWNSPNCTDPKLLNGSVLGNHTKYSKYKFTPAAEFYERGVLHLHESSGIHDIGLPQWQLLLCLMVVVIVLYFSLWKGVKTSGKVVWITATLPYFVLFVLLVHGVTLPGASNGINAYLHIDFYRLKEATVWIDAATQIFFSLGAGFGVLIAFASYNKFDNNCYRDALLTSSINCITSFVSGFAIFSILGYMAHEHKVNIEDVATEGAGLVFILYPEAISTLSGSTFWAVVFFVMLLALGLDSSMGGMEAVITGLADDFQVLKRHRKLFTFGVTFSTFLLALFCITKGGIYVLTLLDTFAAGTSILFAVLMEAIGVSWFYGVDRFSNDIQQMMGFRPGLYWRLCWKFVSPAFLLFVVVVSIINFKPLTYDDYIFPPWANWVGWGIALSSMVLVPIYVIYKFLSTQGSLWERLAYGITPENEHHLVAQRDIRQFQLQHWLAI

CB1(h) = CB1(h) (Homo sapiens, UniProt P21554); assay: Off-target radioligand binding screen; conditions: read-out: CB1(h) (#): inhibition of radioligand binding
AR(h) = assay: Off-target radioligand binding screen; conditions: Nec-1f 10 µM
BZD (central) = assay: Off-target radioligand binding screen; conditions: Nec-1f 10 µM
NMDA = assay: Off-target radioligand binding screen; conditions: Nec-1f 10 µM
[4] = Nec-1f - sham, individual animals
[5] = Nec-1f, 48 h after onset of reperfusion, individual animals
[6] = Nec-1f, 72 h after onset of reperfusion, individual animals
[7] = kidney IRI, 1.65 mg/kg i.p. 15 min before
[8] = mice, bilateral kidney IRI, Nec-1f 1.65 mg/kg i.p. 15 min before, individual animals
[9] = mice, kidney IRI, Nec-1f, individual animals

Sequence of M3(h) (P20309 whole entry): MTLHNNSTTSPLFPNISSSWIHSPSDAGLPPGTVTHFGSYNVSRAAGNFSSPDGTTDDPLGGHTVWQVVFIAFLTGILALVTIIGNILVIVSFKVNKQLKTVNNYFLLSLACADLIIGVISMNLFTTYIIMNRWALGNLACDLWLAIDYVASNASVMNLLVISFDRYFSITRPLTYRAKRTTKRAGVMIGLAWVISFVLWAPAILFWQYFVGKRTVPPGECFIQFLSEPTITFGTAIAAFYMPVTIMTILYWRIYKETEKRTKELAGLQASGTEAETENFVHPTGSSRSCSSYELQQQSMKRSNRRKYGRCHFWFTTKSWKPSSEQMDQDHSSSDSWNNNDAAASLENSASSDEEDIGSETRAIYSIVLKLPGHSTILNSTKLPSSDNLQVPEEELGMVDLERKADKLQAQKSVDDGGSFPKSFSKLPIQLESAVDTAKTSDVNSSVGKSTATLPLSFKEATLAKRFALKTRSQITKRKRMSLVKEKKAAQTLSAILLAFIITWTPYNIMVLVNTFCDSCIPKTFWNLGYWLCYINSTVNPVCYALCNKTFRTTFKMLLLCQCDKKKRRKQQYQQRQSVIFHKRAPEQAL

Question: With `CN1C(=O)C(Cc2c[nH]c3c(Cl)cccc23)NC1=S` (stereo not shown) [Nec-1f] as the compound, how does the inhibition at 10 µM (M3(h)) read?
Answer: The inhibition at 10 µM was -4.9%.

Question: And the “Human plasma stability, parent compound remaining” value ([1]; 0 min)?
Answer: The value was 100%.

Question: What about the “Human plasma stability, parent compound remaining” value ([1]; 20 min) of the same compound?
Answer: The value was 97%.

Question: And the “Human plasma stability, parent compound remaining” value ([1]; 40 min)?
Answer: Its value is 93%.

Question: What about the “Human plasma stability, parent compound remaining” value ([1]; 60 min) of the same compound?
Answer: Its value is 89%.

Question: And the “Human plasma stability, parent compound remaining” value ([1]; 120 min)?
Answer: Its value is 82%.

Question: And the inhibition at 10 µM (β1(h))?
Answer: The inhibition at 10 µM was 3.7%.

Question: And the inhibition at 10 µM (kappa (h) (KOP))?
Answer: Its inhibition at 10 µM is 16%.

Question: What about the inhibition at 10 µM (D1(h)) of the same compound?
Answer: The inhibition at 10 µM was 2.3%.

Question: What about the Serum creatinine (C57Bl/6 N mice; [4]) of the same compound?
Answer: Its Serum creatinine is 23 µmol/L and 17 µmol/L.

Question: And the Serum urea (C57Bl/6 N mice; [4])?
Answer: The Serum urea was 5.5 mmol/L and 5.6 mmol/L.

Question: What about the Serum creatinine (C57Bl/6 N mice; [5]) of the same compound?
Answer: The Serum creatinine was 28 µmol/L and 95 µmol/L and 52 µmol/L and 60 µmol/L and 40 µmol/L and 74 µmol/L and 33 µmol/L and 35 µmol/L and 39 µmol/L.

Question: What about the Serum urea (C57Bl/6 N mice; [5]) of the same compound?
Answer: Its Serum urea is 19.1 mmol/L and 76 mmol/L and 75 mmol/L and 43.6 mmol/L and 50.1 mmol/L and 32.1 mmol/L and 57 mmol/L and 22.5 mmol/L and 16.7 mmol/L and 34.1 mmol/L and 24.8 mmol/L.

Question: What about the Serum creatinine (C57Bl/6 N mice; [6]) of the same compound?
Answer: The Serum creatinine was 79 µmol/L and 31 µmol/L and 63 µmol/L and 46 µmol/L and 53 µmol/L and 44 µmol/L.

Question: And the Serum urea (C57Bl/6 N mice; [6])?
Answer: Its Serum urea is 30.9 mmol/L and 8.8 mmol/L and 20.2 mmol/L and 18.9 mmol/L and 37.3 mmol/L and 16.4 mmol/L.

Question: And the “4HNE staining of renal tissue” value (C57Bl/6 N mice; [7])?
Answer: Its value is “attenuated”.

Question: And the “Infiltration of macrophages (F4/80) in the renal medulla” value (C57Bl/6 N mice; [7])?
Answer: Its value is “significantly less infiltration”.

Question: And the “Serum creatinine vs vehicle” value (C57Bl/6 N mice; [7])?
Answer: The value was “lower than in the vehicle-treated mice”.

Question: What about the “Serum urea vs vehicle” value (C57Bl/6 N mice; [7]) of the same compound?
Answer: The value was “lower than in the vehicle-treated mice”.

Question: What about the “Tubular damage vs vehicle” value (C57Bl/6 N mice; [7]) of the same compound?
Answer: The value was “lower than in the vehicle-treated mice”.

Question: And the “4HNE score, arbitrary [0-3] (sheet FigS2d)” value (C57Bl/6 N mice; kidney IRI, column headed Nec-1f)?
Answer: The value was 1.6 and 1.4.

Question: And the “4HNE staining score, arbitrary [0-3]” value (C57Bl/6 N mice; [8])?
Answer: Its value is 0.6 and 1.6 and 1.8 and 0.8 and 1.2.

Question: What about the “Tubular damage score, arbitrary [0-10]” value (C57Bl/6 N mice; [8]) of the same compound?
Answer: The value was 5 and 7 and 4.

Question: And the “F4/80 positivity, quantitative (Fig6i)” value (C57Bl/6 N mice; [9])?
Answer: Its value is 8.8 cells/field and 7.8 cells/field and 20.3 cells/field and 16.2 cells/field and 20.8 cells/field.

Question: What about the “F4/80 positivity, quantitative (Fig6h)” value (C57Bl/6 N mice; [9]) of the same compound?
Answer: Its value is 3.45 cells/field and 6.077 cells/field and 9.25 cells/field and 7.125 cells/field and 9.0625 cells/field.

Question: What about the “Ca2+ channel (L, dihydropyridine site) ($): inhibition of radioligand binding” value [2] of the same compound?
Answer: The value was 40%.

Question: And the inhibition at 10 µM (D2S(h))?
Answer: The inhibition at 10 µM was 4.8%.

Question: And the “CaOx deposition score [1-10] (Pizzolato staining)” value (C57BL/6N mice)?
Answer: The value was 3 and 6 and 4.

Question: And the inhibition at 10 µM (μ (MOP) (h))?
Answer: Its inhibition at 10 µM is 15.8%.

Question: And the inhibition at 10 µM (V1a(h))?
Answer: The inhibition at 10 µM was 29.3%.

Question: And the inhibition at 10 µM (GR (h))?
Answer: The inhibition at 10 µM was no less than 50%.

Question: And the inhibition at 10 µM (5-HT2B(h))?
Answer: Its inhibition at 10 µM is 16.7%.

Question: What about the inhibition at 10 µM [3] of the same compound?
Answer: The inhibition at 10 µM was 7.3%.

Question: What about the inhibition at 10 µM (CB1(h)) of the same compound?
Answer: The inhibition at 10 µM was -24.7%.

Question: What about the “AR(h) (#): inhibition of radioligand binding” value (AR(h)) of the same compound?
Answer: Its value is 12.2%.

Question: What about the “BZD (central) (#): inhibition of radioligand binding” value (BZD (central)) of the same compound?
Answer: Its value is -4.6%.

Question: And the “NMDA ($): inhibition of radioligand binding” value (NMDA)?
Answer: Its value is 1.4%.
